Source: US8192962B2, “Processes for detecting toxic substances” (Daikin Industries, Ltd., priority 2001, dated 2012)

Tested on: Unknown protein yeast genes
Test: DNA chip mRNA expression in yeast, unknown protein yeast genes (Table 1)
Type: cell-based, Saccharomyces cerevisiae S288C
Outline: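 Value is the scanned fluorescence intensity ratio of exposed versus chemical-free cells. Log-phase S288C yeast in YPD at 25° C. received one toxic substance for two hours, dosed to slow growth without killing; Cy3/Cy5-labeled cDNA from oligo-dT-purified mRNA was hybridized to a whole-genome chip at 65° C.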

Compound: CN(C)C(=S)SSC(=S)N(C)C [(10), Tetramethylthiuram disulfide]
- The level of expressed mRNA in the presence of chemical substance/The level of expressed mRNA in the absence of chemical substance (yeast gene YAL053W, incubated two hours with chemical substance): 0.9
- The level of expressed mRNA in the presence of chemical substance/The level of expressed mRNA in the absence of chemical substance (yeast gene YBL048W): 4.4
- The level of expressed mRNA in the presence of chemical substance/The level of expressed mRNA in the absence of chemical substance (yeast gene YBL107C): 3.1
- The level of expressed mRNA in the presence of chemical substance/The level of expressed mRNA in the absence of chemical substance (yeast gene YBR100W): 3.0
- The level of expressed mRNA in the presence of chemical substance/The level of expressed mRNA in the absence of chemical substance (yeast gene YDL072C, incubated two hours with chemical substance): 1.5
- The level of expressed mRNA in the presence of chemical substance/The level of expressed mRNA in the absence of chemical substance (yeast gene YDL204W, incubated two hours with chemical substance): 2.0
- The level of expressed mRNA in the presence of chemical substance/The level of expressed mRNA in the absence of chemical substance (yeast gene YDL222C, incubated two hours with chemical substance): 1.0
- The level of expressed mRNA in the presence of chemical substance/The level of expressed mRNA in the absence of chemical substance (yeast gene YDR330W, incubated two hours with chemical substance): 2.6
- The level of expressed mRNA in the presence of chemical substance/The level of expressed mRNA in the absence of chemical substance (yeast gene YDR391C, incubated two hours with chemical substance): 2.7
- The level of expressed mRNA in the presence of chemical substance/The level of expressed mRNA in the absence of chemical substance (yeast gene YDR411C, incubated two hours with chemical substance): 1.0
- The level of expressed mRNA in the presence of chemical substance/The level of expressed mRNA in the absence of chemical substance (yeast gene YDR511W, incubated two hours with chemical substance): 2.2
- The level of expressed mRNA in the presence of chemical substance/The level of expressed mRNA in the absence of chemical substance (yeast gene YDR545W, incubated two hours with chemical substance): 0.7
- The level of expressed mRNA in the presence of chemical substance/The level of expressed mRNA in the absence of chemical substance (yeast gene YEL001C, incubated two hours with chemical substance): 1.2
- The level of expressed mRNA in the presence of chemical substance/The level of expressed mRNA in the absence of chemical substance (yeast gene YER004W, incubated two hours with chemical substance): 2.9
- The level of expressed mRNA in the presence of chemical substance/The level of expressed mRNA in the absence of chemical substance (yeast gene YER035W, incubated two hours with chemical substance): 1.4
- The level of expressed mRNA in the presence of chemical substance/The level of expressed mRNA in the absence of chemical substance (yeast gene YER079W, incubated two hours with chemical substance): 3.4
- The level of expressed mRNA in the presence of chemical substance/The level of expressed mRNA in the absence of chemical substance (yeast gene YER106W, incubated two hours with chemical substance): 1.8
- The level of expressed mRNA in the presence of chemical substance/The level of expressed mRNA in the absence of chemical substance (yeast gene YER158C, incubated two hours with chemical substance): 1.6
- The level of expressed mRNA in the presence of chemical substance/The level of expressed mRNA in the absence of chemical substance (yeast gene YER163C, incubated two hours with chemical substance): 3.4
- The level of expressed mRNA in the presence of chemical substance/The level of expressed mRNA in the absence of chemical substance (yeast gene YER175C, incubated two hours with chemical substance): 11.5
- The level of expressed mRNA in the presence of chemical substance/The level of expressed mRNA in the absence of chemical substance (yeast gene YFL006W, incubated two hours with chemical substance): 1.7
- The level of expressed mRNA in the presence of chemical substance/The level of expressed mRNA in the absence of chemical substance (yeast gene YFL010C, incubated two hours with chemical substance): 1.4
- The level of expressed mRNA in the presence of chemical substance/The level of expressed mRNA in the absence of chemical substance (yeast gene YFL024C): 0.5
- The level of expressed mRNA in the presence of chemical substance/The level of expressed mRNA in the absence of chemical substance (yeast gene YFL032W, incubated two hours with chemical substance): 0.6
- The level of expressed mRNA in the presence of chemical substance/The level of expressed mRNA in the absence of chemical substance (yeast gene YFR020W): 3.5
- The level of expressed mRNA in the presence of chemical substance/The level of expressed mRNA in the absence of chemical substance (yeast gene YGL037C, incubated two hours with chemical substance): 1.6
- The level of expressed mRNA in the presence of chemical substance/The level of expressed mRNA in the absence of chemical substance (yeast gene YGL047W, incubated two hours with chemical substance): 5.7
- The level of expressed mRNA in the presence of chemical substance/The level of expressed mRNA in the absence of chemical substance (yeast gene YGL053W, incubated two hours with chemical substance): 2.4
- The level of expressed mRNA in the presence of chemical substance/The level of expressed mRNA in the absence of chemical substance (yeast gene YGL121C): 15.0
- The level of expressed mRNA in the presence of chemical substance/The level of expressed mRNA in the absence of chemical substance (yeast gene YGL199C, incubated two hours with chemical substance): 0.1
- The level of expressed mRNA in the presence of chemical substance/The level of expressed mRNA in the absence of chemical substance (yeast gene YGR101W, incubated two hours with chemical substance): 1.4
- The level of expressed mRNA in the presence of chemical substance/The level of expressed mRNA in the absence of chemical substance (yeast gene YGR110W): 4.8
- The level of expressed mRNA in the presence of chemical substance/The level of expressed mRNA in the absence of chemical substance (yeast gene YGR130C, incubated two hours with chemical substance): 1.5
- The level of expressed mRNA in the presence of chemical substance/The level of expressed mRNA in the absence of chemical substance (yeast gene YGR154C, incubated two hours with chemical substance): 9.1
- The level of expressed mRNA in the presence of chemical substance/The level of expressed mRNA in the absence of chemical substance (yeast gene YGR221C, incubated two hours with chemical substance): 0.7
- The level of expressed mRNA in the presence of chemical substance/The level of expressed mRNA in the absence of chemical substance (yeast gene YGR243W): 3.0
- The level of expressed mRNA in the presence of chemical substance/The level of expressed mRNA in the absence of chemical substance (yeast gene YHR029C): 8.6
- The level of expressed mRNA in the presence of chemical substance/The level of expressed mRNA in the absence of chemical substance (yeast gene YHR105W): 3.4
- The level of expressed mRNA in the presence of chemical substance/The level of expressed mRNA in the absence of chemical substance (yeast gene YHR138C, incubated two hours with chemical substance): 4.6
- The level of expressed mRNA in the presence of chemical substance/The level of expressed mRNA in the absence of chemical substance (yeast gene YHR199C, incubated two hours with chemical substance): 6.0
- The level of expressed mRNA in the presence of chemical substance/The level of expressed mRNA in the absence of chemical substance (yeast gene YHR209W): 6.4
- The level of expressed mRNA in the presence of chemical substance/The level of expressed mRNA in the absence of chemical substance (yeast gene YIL023C, incubated two hours with chemical substance): 1.6
- The level of expressed mRNA in the presence of chemical substance/The level of expressed mRNA in the absence of chemical substance (yeast gene YIL024C, incubated two hours with chemical substance): 1.8
- The level of expressed mRNA in the presence of chemical substance/The level of expressed mRNA in the absence of chemical substance (yeast gene YIL041W, incubated two hours with chemical substance): 1.4
- The level of expressed mRNA in the presence of chemical substance/The level of expressed mRNA in the absence of chemical substance (yeast gene YIL087C, incubated two hours with chemical substance): 1.8
- The level of expressed mRNA in the presence of chemical substance/The level of expressed mRNA in the absence of chemical substance (yeast gene YJL057C, incubated two hours with chemical substance): 6.1
- The level of expressed mRNA in the presence of chemical substance/The level of expressed mRNA in the absence of chemical substance (yeast gene YJL066C, incubated two hours with chemical substance): 2.1
- The level of expressed mRNA in the presence of chemical substance/The level of expressed mRNA in the absence of chemical substance (yeast gene YJL082W, incubated two hours with chemical substance): 2.9
- The level of expressed mRNA in the presence of chemical substance/The level of expressed mRNA in the absence of chemical substance (yeast gene YJL151C, incubated two hours with chemical substance): 1.6
- The level of expressed mRNA in the presence of chemical substance/The level of expressed mRNA in the absence of chemical substance (yeast gene YJL152W, incubated two hours with chemical substance): 1.0
- The level of expressed mRNA in the presence of chemical substance/The level of expressed mRNA in the absence of chemical substance (yeast gene YJL161W, incubated two hours with chemical substance): 2.1
- The level of expressed mRNA in the presence of chemical substance/The level of expressed mRNA in the absence of chemical substance (yeast gene YJL171C, incubated two hours with chemical substance): 1.7
- The level of expressed mRNA in the presence of chemical substance/The level of expressed mRNA in the absence of chemical substance (yeast gene YJR008W, incubated two hours with chemical substance): 1.9
- The level of expressed mRNA in the presence of chemical substance/The level of expressed mRNA in the absence of chemical substance (yeast gene YJR054W, incubated two hours with chemical substance): 0.6
- The level of expressed mRNA in the presence of chemical substance/The level of expressed mRNA in the absence of chemical substance (yeast gene YKL071W): 109.2
